Measurements reported in ChEMBL document CHEMBL1147421, “Diamine derivatives with antiparasitic activities” (Bioorg Med Chem Lett, 2004).
Several values for one entry are separate records, joined by “and”; a condition that tells them apart may be missing. Equal values may be shown once.

Tests used:
[1] = Antiparasitic activity against Leishmania promastigotes (Leishmania donovani); type: functional
Plasmodium falciparum [2] = assay: Antiparasitic activity against chloroquine-resistant Plasmodium falciparum W2; type: functional, organism-based
Plasmodium falciparum [3] = assay: Antiparasitic activity against Plasmodium falciparum D6; type: functional, organism-based

| SMILES | EC50 [1] | EC50 (Plasmodium falciparum [2]) | EC50 (Plasmodium falciparum [2]; Plasmodium falciparum) | EC50 (Plasmodium falciparum [3]) | EC50 (Plasmodium falciparum [3]; Plasmodium falciparum) |
| --- | --- | --- | --- | --- | --- |
| NCCCN(Cc1ccc(OCc2ccc(Br)cc2)cc1)Cc1ccc(OCc2ccc(Br)cc2)cc1 | 0.91 µM and 0.88 µM | 2.25 µM | 2.44 µM | 1.23 µM | 1.14 µM |
| NCCCCN(Cc1ccc(Br)o1)Cc1ccc(Br)o1.O=C(O)C(F)(F)F | 19.2 µM | Not Active | – | Not Active | – |
| CC(C)c1ccc(CN(CCCCN)Cc2ccccc2)cc1 | 1.88 µM | – | 10.1 µM | – | 9.66 µM |
| COc1ccc(CN(CCCN)Cc2ccc(OC)cc2)cc1.O=C(O)C(F)(F)F | 10 µM | – | 9.34 µM | Not Active | – |
| NCCCN(Cc1ccc(OCCc2ccccc2)cc1)Cc1ccc(OCCc2ccccc2)cc1.O=C(O)C(F)(F)F | 14.2 µM and 11.1 µM | Not Active | – | 6.94 µM | 4.25 µM |
| NCCCN(Cc1ccc(OCc2ccc(Cl)c(Cl)c2)cc1)Cc1ccc(OCc2ccc(Cl)c(Cl)c2)cc1 | 0.97 µM and 2.57 µM | 4.11 µM | 3.2 µM | 1.54 µM | 1.34 µM |
| NCCCCN(Cc1ccccc1)Cc1ccc(OCc2ccccc2)cc1 | 0.37 µM | – | 7.78 µM | – | 5.73 µM |
| COc1cc(CN(CCCN)Cc2cc(OC)cc(OC)c2)cc(OC)c1.O=C(O)C(F)(F)F | 9.42 µM | Not Active | – | Not Active | – |
| NCCCCN(Cc1ccc(OCc2ccccc2)c(OCc2ccccc2)c1)Cc1ccc(OCc2ccccc2)c(OCc2ccccc2)c1 | 1.86 µM | – | 2.23 µM | – | 3.47 µM |
| NCCCCN(Cc1ccc(OCCc2ccccc2)cc1)Cc1ccc(OCCc2ccccc2)cc1.O=C(O)C(F)(F)F | 13 µM and 27 µM | Not Active | – | 8.68 µM | 7.43 µM |
| NCCCN(Cc1ccc(OCc2c(F)c(F)c(F)c(F)c2F)cc1)Cc1ccc(OCc2c(F)c(F)c(F)c(F)c2F)cc1 | 3.81 µM and 1.95 µM | 3.29 µM | 3.16 µM | 2.68 µM | 2.24 µM |
| COc1cccc(CN(CCCN)Cc2cccc(OC)c2)c1.O=C(O)C(F)(F)F | 12.6 µM | Not Active | – | Not Active | – |
| CCCCN(CCCC)CCCN.O=C(O)C(F)(F)F | 4.66 µM | Not Active | – | – | 6.33 µM |
| NCCCN(Cc1ccc(OCc2ccccc2)cc1)Cc1ccc(OCc2ccccc2)cc1 | 1.12 µM | – | 6.03 µM | – | 4.99 µM |
| NCCCCN(Cc1ccc(Cl)cc1)Cc1ccc(Cl)cc1.O=C(O)C(F)(F)F | 3.77 µM | Not Active | – | Not Active | – |
| COc1ccc(CN(CCCCN)Cc2ccc(OC)cc2)cc1.O=C(O)C(F)(F)F | 10.6 µM | – | 6.78 µM | Not Active | – |
| CC(C)c1ccc(CN(CCCCN)Cc2ccc(C(C)C)cc2)cc1.O=C(O)C(F)(F)F | 3 µM | – | 7.29 µM | Not Active | – |
| NCCCN(Cc1ccccc1)Cc1ccc(OCc2ccccc2)cc1 | 1.37 µM | – | 3.79 µM | – | 4.43 µM |
| CC(C)(C)c1ccc(COc2ccc(CN(CCCN)Cc3ccc(OCc4ccc(C(C)(C)C)cc4)cc3)cc2)cc1 | 2.13 µM and 1.37 µM | 4.04 µM | 3.85 µM | 2.02 µM | 2.52 µM |
| C[C@@H]1[C@H](O)[C@@H](C)/C=C/C=C/CC/C=C/C=C/C=C/C=C/[C@H](O[C@@H]2O[C@H](C)[C@@H](O)[C@H](N)[C@@H]2O)C[C@@H]2O[C@](O)(C[C@@H](O)C[C@@H](O)[C@H](O)CC[C@@H](O)C[C@@H](O)CC(=O)O[C@H]1C)C[C@H](O)[C@H]2C(=O)O | 0.01 µM | – | – | – | – |
| COc1ccc(CN(CCCN)Cc2ccccc2)cc1.O=C(O)C(F)(F)F | 4.52 µM | Not Active | – | Not Active | – |
| COc1ccc(OC)c(CN(CCCCN)Cc2cc(OC)ccc2OC)c1.O=C(O)C(F)(F)F | 5.37 µM | Not Active | – | Not Active | – |

| SMILES | EC50 [1] | EC50 (Plasmodium falciparum [2]) | EC50 (Plasmodium falciparum [2]; Plasmodium falciparum) | EC50 (Plasmodium falciparum [3]) | EC50 (Plasmodium falciparum [3]; Plasmodium falciparum) |
| --- | --- | --- | --- | --- | --- |
| NCCCN(Cc1ccccc1)Cc1ccc(Cc2ccc(Br)o2)cc1.O=C(O)C(F)(F)F | 20.6 µM | – | 5.72 µM | Not Active | – |
| NCCCCN(Cc1ccc(OCCCc2ccccc2)cc1)Cc1ccc(OCCCc2ccccc2)cc1 | 2.46 µM and 2.96 µM | 2.53 µM | 3.07 µM | 1.04 µM | 1.12 µM |
| NCCCCN(Cc1ccc(OCc2ccccc2)cc1)Cc1ccc(OCc2ccccc2)cc1 | 1.85 µM | – | 4.88 µM | – | 3.2 µM |
| COc1ccc(CN(CCCN)Cc2ccc(OC)cc2OC)c(OC)c1.O=C(O)C(F)(F)F | 20.5 µM | – | 9.42 µM | Not Active | – |
| COc1cc(CN(CCCN)Cc2ccc(OCc3ccccc3)c(OC)c2)ccc1OCc1ccccc1 | 0.67 µM | – | 2.81 µM | – | 2.97 µM |
| CC(C)(C)c1ccc(COc2ccc(CN(CCCCN)Cc3ccc(OCc4ccc(C(C)(C)C)cc4)cc3)cc2)cc1 | 8.92 µM and 3 µM | 6.42 µM and 2.09 µM | – | – | 1.07 µM |
| NCCCCN(Cc1ccccc1)Cc1ccc(Cl)cc1.O=C(O)C(F)(F)F | 1.61 µM | Not Active | – | Not Active | – |
| CC(C)c1ccc(CN(CCCN)Cc2ccccc2)cc1 | 1.58 µM | – | 2.19 µM | – | 7.31 µM |
| NCCCN(Cc1ccc(OCc2ccccc2)c(OCc2ccccc2)c1)Cc1ccc(OCc2ccccc2)c(OCc2ccccc2)c1 | 1.64 µM | – | 3.03 µM | – | 2.9 µM |
| NCCCN(Cc1ccc(Cl)cc1)Cc1ccc(Cl)cc1.O=C(O)C(F)(F)F | 8.69 µM | – | 10.1 µM | Not Active | – |
| NCCCN(Cc1ccccc1)Cc1ccccc1.O=C(O)C(F)(F)F | 24.2 µM | Not Active | – | Not Active | – |
| CC(C)c1ccc(CN(CCCN)Cc2ccc(C(C)C)cc2)cc1.O=C(O)C(F)(F)F | 2.65 µM | – | 9.5 µM | Not Active | – |
| COc1cccc(CN(CCCCN)Cc2cccc(OC)c2)c1.O=C(O)C(F)(F)F | 10.8 µM | – | 6.1 µM | Not Active | – |
| NCCCN(Cc1ccc(Br)o1)Cc1ccc(Br)o1.O=C(O)C(F)(F)F | 19.8 µM | Not Active | – | Not Active | – |
| NCCCN(Cc1ccccc1)Cc1ccc(C(=O)O)cc1.O=C(O)C(F)(F)F | 8.97 µM | Not Active | – | Not Active | – |
| NCCCCN(Cc1ccccc1)Cc1ccc(Br)o1.O=C(O)C(F)(F)F | 21.1 µM | Not Active | – | Not Active | – |
| NCCCCN(Cc1ccccc1)Cc1ccccc1.O=C(O)C(F)(F)F | 26.2 µM | Not Active | – | Not Active | – |
| N=C(N)c1ccc(OCCCCCOc2ccc(C(=N)N)cc2)cc1 [PENTAMIDINE] | 1.35 µM | – | – | – | – |
| NCCCN(Cc1ccc(OCCCc2ccccc2)cc1)Cc1ccc(OCCCc2ccccc2)cc1 | 0.94 µM and 1 µM | 3.44 µM | 5.34 µM | 2.01 µM | 1.88 µM |
| CC1=C2[C@H]3OC(=O)[C@@H](C)[C@@H]3[C@@H](O)C[C@@]2(C)C=CC1=O | – | – | 0.02 µM | – | 0.02 µM |
| CCN(CC)CCCC(C)Nc1ccnc2cc(Cl)ccc12 (configuration not stated) [CHLOROQUINE] | – | – | 0.31 µM | – | 0.014 µM |
